Results: US11339167B2, “Substituted piperidines as kinase inhibitors” (Daewoong Pharmaceutical Co., Ltd., priority 2017, dated 2022)
Read-outs that look alike come from different tables or passages of the source.

How the values were obtained:
human BTK = human BTK (Homo sapiens (Human), UniProt Q06187); experiment: BTK kinase inhibitory activity, ADP Glo kinase assay
JAK3 kinase = JAK3 kinase (Mus musculus (Mouse), UniProt Q62137); experiment: JAK3-mediated cell assay (HT-2/IL-2 assay), STAT5 phosphorylation HTRF; assay type: cell-based; conditions: STAT5 phosphorylation induced by IL-2 (20 ng/ml, 10 minutes) in HT-2 cells, compound treatment 30 minutes
Experimental: The inhibitory activities against JAK3 kinase at the cellular level were measured for the compounds prepared in the Examples through in vitro analysis of STAT5 phosphorylation induced by IL-2 stimulation in HT-2 cells. Specifically, STAT5 phosphorylation was analyzed using HTRF® phospho-STAT5 (Tyr694) assay kit (Cisbio, 64AT5PEG), which was purchased from Cisbio. HT-2 cells were cultured for 2 hours in growth factor-free medium. The cultured HT-2 cells were dispensed into 96-well plates by 50 ul so as to be a density of 2.5×10^5 cells/well. The compounds prepared in the previous Examples were prepared so as to be finally a 0.3% DMSO aqueous solution, and HT-2 cells was treated with the compounds for 30 minutes. After the compound treatment, IL-2 was prepared so as to be finally a concentration of 20 ng/ml, and HT-2 cells was treated for 10 minutes. The cells were then disrupted by treating lysis buffers for 30 minutes. The level of STAT5 phosphorylation was measured according to the instructions of HTRF® phospho-STAT5 assay kit, and the inhibitory activity of the compounds according to the invention was calculated. For the analysis of the results of each compound, Microsoft Excel was used, and IC50 values were calculated by SigmaPlot software.

human JAK3 = human JAK3 (Homo sapiens (Human), UniProt P52333); experiment: JAK3 kinase inhibitory activity, ADP Glo kinase assay; assay type: biochemical; conditions: recombinant purified human JAK3, ATP 5 uM, Poly(Glu4,Tyr1) peptide, 1 hour 30° C.
Experimental: JAK3 and BTK kinases inhibitory activities were measured for the compounds prepared in the Examples through in vitro analysis on the ADP Glow (Glo) platform.
Specifically, the inhibitory activities against JAK3 and BTK kinase were measured using a JAK3 kinase assay kit (Promega, V9441) and a BTK kinase assay kit (Promega, V9071) which were purchased from Promega. […] After incubation (30° C.) for 1 hour, equivalent volume (25 uL per reaction) of ADP Glo was added and incubated (30° C.) for 40 minutes at room temperature. Then, a kinase detection reagent (50 uL per reaction) was added and incubated (30° C.) for 30 minutes at room temperature. The kinase activity was measured by chemiluminescence according to the instructions of ADP Glow kinase assay kit, and the inhibitory activity of the compounds according to the present disclosure was calculated.

[1] = read-out: BTK IC50, recombinant purified human BTK, ATP 10 uM, Poly(Glu4,Tyr1) peptide, 1 hour 30° C.

Sequence of JAK3 kinase (Q62137 whole entry): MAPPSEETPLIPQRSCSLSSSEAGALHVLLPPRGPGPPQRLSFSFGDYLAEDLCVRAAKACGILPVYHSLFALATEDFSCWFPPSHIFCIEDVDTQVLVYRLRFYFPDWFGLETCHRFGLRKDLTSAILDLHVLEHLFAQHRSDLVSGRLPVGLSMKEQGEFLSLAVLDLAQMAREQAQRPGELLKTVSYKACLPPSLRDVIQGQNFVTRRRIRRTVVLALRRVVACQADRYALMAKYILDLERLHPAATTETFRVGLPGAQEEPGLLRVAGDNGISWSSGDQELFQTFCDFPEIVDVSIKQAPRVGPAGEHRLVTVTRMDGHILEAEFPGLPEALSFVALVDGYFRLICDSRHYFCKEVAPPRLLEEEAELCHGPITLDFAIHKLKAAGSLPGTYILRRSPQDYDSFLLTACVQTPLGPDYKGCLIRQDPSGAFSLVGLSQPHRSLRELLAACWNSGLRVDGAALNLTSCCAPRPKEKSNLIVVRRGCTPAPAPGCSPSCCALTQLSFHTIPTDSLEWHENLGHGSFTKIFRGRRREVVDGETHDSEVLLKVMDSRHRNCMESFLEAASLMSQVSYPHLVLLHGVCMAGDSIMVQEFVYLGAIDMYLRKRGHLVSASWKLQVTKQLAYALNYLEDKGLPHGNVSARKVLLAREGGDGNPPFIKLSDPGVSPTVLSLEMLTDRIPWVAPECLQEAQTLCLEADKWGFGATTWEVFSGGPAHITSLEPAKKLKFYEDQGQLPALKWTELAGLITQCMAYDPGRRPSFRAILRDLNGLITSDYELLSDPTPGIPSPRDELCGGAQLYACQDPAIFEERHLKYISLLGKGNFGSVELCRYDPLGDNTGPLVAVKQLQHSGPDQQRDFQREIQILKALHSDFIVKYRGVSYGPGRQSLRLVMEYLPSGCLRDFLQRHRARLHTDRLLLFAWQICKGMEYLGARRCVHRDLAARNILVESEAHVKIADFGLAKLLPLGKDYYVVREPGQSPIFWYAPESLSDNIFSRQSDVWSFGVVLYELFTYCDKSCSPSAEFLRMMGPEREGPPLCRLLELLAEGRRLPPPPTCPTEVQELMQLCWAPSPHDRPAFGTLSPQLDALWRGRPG
Sequence of human JAK3 (P52333 whole entry): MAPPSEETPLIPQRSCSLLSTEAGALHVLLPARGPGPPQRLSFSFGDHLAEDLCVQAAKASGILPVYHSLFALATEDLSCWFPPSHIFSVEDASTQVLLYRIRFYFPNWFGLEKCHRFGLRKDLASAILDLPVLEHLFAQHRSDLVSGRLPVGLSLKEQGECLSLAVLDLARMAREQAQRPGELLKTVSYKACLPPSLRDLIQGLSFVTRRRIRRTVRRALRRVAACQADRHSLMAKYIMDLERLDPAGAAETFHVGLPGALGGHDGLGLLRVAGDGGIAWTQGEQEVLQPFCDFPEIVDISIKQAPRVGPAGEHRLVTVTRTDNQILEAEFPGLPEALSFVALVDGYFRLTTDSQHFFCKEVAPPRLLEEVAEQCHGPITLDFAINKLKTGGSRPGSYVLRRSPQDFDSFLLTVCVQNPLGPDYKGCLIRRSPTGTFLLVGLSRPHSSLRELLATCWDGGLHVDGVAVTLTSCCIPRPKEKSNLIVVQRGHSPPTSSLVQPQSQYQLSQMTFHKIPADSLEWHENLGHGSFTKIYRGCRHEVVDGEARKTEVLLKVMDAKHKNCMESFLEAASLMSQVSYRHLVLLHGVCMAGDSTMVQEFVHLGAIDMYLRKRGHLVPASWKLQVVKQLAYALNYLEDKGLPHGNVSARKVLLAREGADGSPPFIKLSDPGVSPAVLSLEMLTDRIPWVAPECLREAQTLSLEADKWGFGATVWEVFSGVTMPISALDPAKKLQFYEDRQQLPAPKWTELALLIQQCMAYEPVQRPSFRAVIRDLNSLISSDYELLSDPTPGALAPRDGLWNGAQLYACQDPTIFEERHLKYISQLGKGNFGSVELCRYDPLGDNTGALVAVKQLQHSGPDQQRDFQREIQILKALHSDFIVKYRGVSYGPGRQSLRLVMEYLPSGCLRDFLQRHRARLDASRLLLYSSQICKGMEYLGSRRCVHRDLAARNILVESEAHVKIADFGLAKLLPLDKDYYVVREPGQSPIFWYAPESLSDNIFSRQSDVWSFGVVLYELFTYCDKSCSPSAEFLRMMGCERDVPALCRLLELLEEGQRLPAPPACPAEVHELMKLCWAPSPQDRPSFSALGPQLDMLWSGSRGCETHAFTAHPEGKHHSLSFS
Sequence of human BTK (Q06187 whole entry): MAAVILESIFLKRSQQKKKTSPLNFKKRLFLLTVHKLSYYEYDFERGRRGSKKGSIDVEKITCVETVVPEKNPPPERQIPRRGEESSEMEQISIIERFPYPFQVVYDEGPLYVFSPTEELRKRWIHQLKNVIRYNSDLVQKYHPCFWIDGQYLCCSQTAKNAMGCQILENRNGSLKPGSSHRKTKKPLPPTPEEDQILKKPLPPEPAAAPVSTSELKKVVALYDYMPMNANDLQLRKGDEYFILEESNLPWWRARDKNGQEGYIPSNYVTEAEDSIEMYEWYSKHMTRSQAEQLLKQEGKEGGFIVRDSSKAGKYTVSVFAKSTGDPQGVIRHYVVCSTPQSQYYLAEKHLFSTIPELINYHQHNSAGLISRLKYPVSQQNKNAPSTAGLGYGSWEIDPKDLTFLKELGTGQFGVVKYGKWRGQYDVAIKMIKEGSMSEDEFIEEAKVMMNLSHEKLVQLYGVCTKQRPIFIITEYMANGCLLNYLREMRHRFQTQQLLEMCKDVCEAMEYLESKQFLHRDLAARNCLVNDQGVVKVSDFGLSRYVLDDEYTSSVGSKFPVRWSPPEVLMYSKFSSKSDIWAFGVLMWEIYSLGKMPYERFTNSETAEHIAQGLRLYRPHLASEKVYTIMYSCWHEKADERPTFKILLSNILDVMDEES

| SMILES | IC50 (human BTK) [nM] | IC50 (JAK3 kinase) [nM] | IC50 (human JAK3) [nM] | IC50 (human BTK; [1]) [nM] |
| --- | --- | --- | --- | --- |
| C=CC(=O)N1CC[C@@H](F)[C@H](Oc2nc(Nc3cnn(CC)c3)nc3[nH]ccc23)C1 (racemic) [Example 1, 1-(trans-3-((2-((1-ethyl-1H-pyrazol-4-yl)amino)-7H-pyrrolo[2,3-d]pyrimidin-4-yl)oxy)-4-fluoropiperidin-1-yl)prop-2-en-1-one] | 2.4 | 67.4 | 0.3 | – |
| C=CC(=O)N1CC[C@H](F)[C@H](Oc2nc(Nc3cnn(CC)c3)nc3[nH]ccc23)C1 (racemic) [Example 4, 1-(cis-3-((2-((1-ethyl-1H-pyrazol-4-yl)amino)-7H-pyrrolo[2,3-d]pyrimidin-4-yl)oxy)-4-fluoropiperidin-1-yl)prop-2-en-1-one] | 4.2 | 115 | 0.4 | – |
| C=CC(=O)N1CC[C@@H](F)[C@H](Oc2nc(Nc3cnn(CC)c3)nc3[nH]cc(Cl)c23)C1 (racemic) [Example 9, 1-(trans-3-((5-chloro-2-((1-ethyl-1H-pyrazol-4-yl)amino)-7H-pyrrolo[2,3-d]pyrimidin-4-yl)oxy)-4-fluoropiperidin-1-yl)prop-2-en-1-one] | 2.1 | 72.3 | 0.3 | – |
| C=CC(=O)N1CC[C@@H](F)[C@H](Oc2nc(Nc3cc(C)ns3)nc3[nH]cc(Cl)c23)C1 (racemic) [Example 11, 1-(trans-3-((5-chloro-2-((3-methylisothiazol-5-yl)amino)-7H-pyrrolo[2,3-d]pyrimidin-4-yl)oxy)-4-fluoropiperidin-1-yl)prop-2-en-1-one] | 2.5 | 96 | 0.3 | – |
| C=CC(=O)N1CC[C@@H](F)[C@@H](Oc2nc(Nc3cnn(CC)c3)nc3[nH]ccc23)C1 [Example 5, 1-((3S,4R)-3-((2-((1-ethyl-1H-pyrazol-4-yl)amino)-7H-pyrrolo[2,3-d]pyrimidin-4-yl)oxy)-4-fluoropiperidin-1-yl)prop-2-en-1-one] | – | 101 | 0.2 | 1.5 |
| C=CC(=O)N1CC[C@H](F)[C@@H](Oc2nc(Nc3cnn(CC)c3)nc3[nH]ccc23)C1 [Example 25, 1-((3S,4S)-3-((2-((1-ethyl-1H-pyrazol-4-yl)amino)-7H-pyrrolo[2,3-d]pyrimidin-4-yl)oxy)-4-fluoropiperidin-1-yl)prop-2-en-1-one] | – | 32.3 | 0.2 | 1.2 |
| C=CC(=O)N1CC[C@H](F)[C@H](Oc2nc(Nc3ccc4ncsc4c3)nc3[nH]ccc23)C1 [Example 34, 1-((3R,4S)-3-((2-(benzo[d]thiazol-6-ylamino)-7H-pyrrolo[2,3-d]pyrimidin-4-yl)oxy)-4-fluoropiperidin-1-yl)prop-2-en-1-one] | – | – | > 80 | > 400 |
